Reference: patent US8278072B1, “Method for synthesis of sialylated products using reversible sialylation” (Health Research, Inc., priority 2007, dated 2012)
Blank lines part the entries; values can stand above or below the compound they belong to.

Legend:
Format in all cases: biochemical
ST3Gal-II [1] = molecular target: T1, ST3Gal-II (Rattus norvegicus, UniProt Q11205); assay: Effect of O-glycans with sialyl or sulfo substituents on reverse sialylation from [9-3H] sialyl fetuin; details: 6.0 mM compound, [9-3H] sialyl fetuin donor, 20 mM 5′-CMP, 20 h
T1 construct: purchased Calbiochem
T1 sequence (Q11205 1-350): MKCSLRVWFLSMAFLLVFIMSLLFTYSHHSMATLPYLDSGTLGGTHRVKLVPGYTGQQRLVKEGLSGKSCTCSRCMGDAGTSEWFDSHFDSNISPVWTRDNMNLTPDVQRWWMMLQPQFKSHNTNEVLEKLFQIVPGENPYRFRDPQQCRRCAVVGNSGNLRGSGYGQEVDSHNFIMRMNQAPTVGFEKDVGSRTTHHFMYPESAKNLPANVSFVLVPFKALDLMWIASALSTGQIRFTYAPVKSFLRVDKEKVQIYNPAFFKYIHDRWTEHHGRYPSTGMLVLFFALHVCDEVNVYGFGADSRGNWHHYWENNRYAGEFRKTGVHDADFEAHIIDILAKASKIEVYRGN
Experimental: FIG. 6. Effect of sialyl or sulfo substituents in O-glycan chain on the reverse sialylation by ST3Gal-II. Incubation mixtures (600 μl) contained [9-^3H] sialyl fetuin (5 mg), 200 mM NaCa Codylate pH 6.0, 20 mM 5′-CMP, […] ST3Gal-II and the following: a. 6.0 mM NeuAcα2,3Galβ1,4GlcNAcβ1,6 (Galβ1,3)GalNAcα-O-Bn, b. 6.0 mM 3-O-SulfoGalβ1,4GlcNAcβ1,6(Galβ1,3)GalNAcα-O-Bn or c. 6.0 mM Galβ1,6GlcNAcβ1,6(3-O-Sulphoβ1,3Gal)GalNAcα-O-Bn along with 50 mU ST3Gal-III. Products were fractionated using Biogel P2 column after 20 h at 37° C. Unused [9-^3H] sialyl fetuin (peak 1) appears prior to [9-^3H]Sialyl product from acceptor (peak 2) and CMP-[9-^3H]NeuAc (peak 3). Product identities were verified using LC-MS as indicated by molecular weights noted in the panels.
For these studies, [9-^3H] sialyl fetuin was prepared by the action of ST3Gal-II on fetuin in the presence of CMP-[9-^3H]NeuAc. Radioactivity incorporation into the O-glycan chain of the glycoprotein was confirmed by treating the labeled molecule with alkaline borohyrdride (1MNaBH4 in 0.1MNaOH at 45° C. for 24 hours) and detecting the released radioactivity. During these studies, sialyl fetuin was incubated with 5′-CMP, one of the above mentioned compounds, and sialyltransferase for 20 hours, and the product formed was eluted using a Biogel P2 column. […] Consequently no radioactivity was associated with the acceptor. […] The use of distinct compounds to differentially alter reverse and forward sialylation function further supports the concept that ST3Gal-II may have more than one catalytic function.

ST3Gal-II [2] = molecular target: T1, ST3Gal-II; assay: Reverse sialylation equilibrium constant (Keq) and 5′-CMP dose dependence; details: for Keq (dimensionless units), reverse sialylation equilibrium constant: acceptor 5′-CMP
Experimental: FIG. 2. Equilibrium constant. a. Reversible sialyltransferase activity at increasing concentration of 5′-CMP. 0.15 mM of donor [9-^3H]NeuAcα2,3Galβ1,3(4-FGlcNAcβ1,6)GalNAcα-O-Bn [9-^3H[2]] was incubated with varying concentrations of 5′-CMP and 0.15 mU ST3Gal-II under conditions described in FIG. 1 for 2 hours. The consumption of the [9-^3H]NeuAc benzyl glycoside donor was measured by subjecting the incubation mixture to Sep-Pak C18 fractionation, which binds the donor and not CMP-[9-^3H]NeuAc. The reaction proceeded to ½ the maximum extent at 80 μM 5′-CMP. b. Equilibrium constant Keq (=0.35) calculated for data in panel a. c. Varying concentrations of 5′-CMP was sialylated with ST3Gal-II (2.0 mU) using either 0.15 mM (panel c) or 1.5 mM (not shown) sialyl donor [9-^3H]NeuAcα2,3Galβ1,3GalNAcβ1,3Galα-O-Me [9-^3H[3]] for 4 hours. The product CMP-[9-^3H]NeuAc and the unused [9-^3H[3]] were separated and quantitated by Dowex-1-Formate method. d. Equilibrium constant, Keq=98.9. Diamonds denote data from 1.5 mM runs while data from 0.15 mM runs are depicted by squares.
a) Biogel P2 chromatography: A Biogel P2 column (Fine Mesh; 1.0×116.0 cm) was used with 0.1 M pyridine acetate (pH5.4) as the eluent at room temperature. […] Fractions of 1.0 ml were collected. The bound material was then eluted with 0.5M GlcNAc or 0.2M Gal in the same buffer. […] Calculation of equilibrium constant, Keq: Equilibrium constant was calculated for selected reversible bimolecular reactions that are denoted by:
[formula] Here, [9-^3H]D* denotes the radiolabeled donor and D′ is the donor after removal of sialic acid. Similarly, A and [9-^3H]A* denote the acceptor before and after incorporation of NeuAc. In each run, unreacted [9-^3H]D* and product [9-^3H] A* are measured using radioactivity measurements. The equilibrium constant (Keq=kreverse/kforward, dimensionless units) are then determined using the following equation, where terms in square brackets denote concentrations:
[formula] [D0] and [A0] are initial donor and acceptor concentrations. A plot of [D*]/([D0]−[D*]) versus [A*]/([A0]−[A*]) yields Keq from slope data. Keq<1 implies that the forward reaction is favored and the reaction proceeds to the right side to form [9-^3H]A* efficiently. Liquid Chromatography Coupled with Tandem Mass Spectrometry (LC/MS/MS)
Similar results were observed upon increasing concentrations of 5′-CMP when [9-^3H]NeuAcα2,3Galβ1,3(4-FGlcNAcβ1,6) GalNAcα-O-Bn [9-^3H[2]] was donor (FIG. 2a, b). The concentration of 5′-CMP that mediated half-maximal transfer of [9-^3H]NeuAc was 80 μM. The bimolecular equilibrium constant (Keq) for this reaction was 0.35 (dimensionless units, Table I). Indeed, the Keq varied depending on the donor and it was 98.9 when the donor was based on the globo glycolipid, [9-^3H]NeuAcα2,3Galβ1,3GalNAcβ1,3 Gala-O-Me [[9-^3H] [3]] (FIG. 2c, d). Upon comparing and [3], it is apparent that reverse sialylation proceeds more effectively in the case of [2]. To further confirm the above estimates of Keq for core-2 based structures, we also calculated this parameter for our previously published data where [9-^3H]CMP-NeuAc was donor and mucin core-2 tetrasaccharide Galβ1,4GlcNAcβ1,6(Galβ1,3)GalNAcα-O-Bn was acceptor. In this case, Keq measured with respect to the rate of mucin core-2 sialylation was 5.55 (data not shown), which translates to a reverse sialylation Keq of 0.18.

ST3Gal-II [3] = molecular target: T1, ST3Gal-II; assay: Serial transfer of sialic acid from donor via 5′-CMP to acceptors (scheme-II)
Experimental: FIG. 3. Serial transfer of sialic acid using scheme-II was followed at increasing concentrations of acceptor D-Fucβ1,3GalNAcα-O-Bn. The donor used was either: i) 0.15 mM [9-^3H]CMP-NeuAc; or, ii) 0.15 mM [9-^3H]NeuAcα2,3Galβ1,3(4-FGlcNAcβ1,6)GalNAcα-O-Bn [9-^3H [2]] in the presence of 2.0 mM 5′-CMP, or iii) [9-^3H]NeuAcα2,3Galβ1,3(6-O-SulfoGlcNAcβ1,6)GalNAcα-O—Al [[9-^3H] [4]] in the presence of 2.0 mM 5′-CMP. In runs where [9-^3H [2]] was donor since both and [2] bind C18 cartridges, control runs were performed in the absence of D-Fucβ1,3GalNAcα-O-Bn to estimate the amount of [9-^3H]CMP-NeuAc formed under the experimental conditions. 80-85% of the radioactivity was transferred to CMP-NeuAc in these runs. The amount of CMP-NeuAc remaining in runs with was then subtracted from CMP-NeuAc radioactivity in the control run to determine the amount of sialylated. To complement this run, studies were also performed with [[9-^3H] […] In these runs, the amount of sialylated was determined by measuring radioactivity retained in the C18-cartridge. a. Equilibrium constant was 5.55 when CMP-[9-^3H]NeuAc was donor. b. ˜10-fold lower acceptor concentration was required for similar extents of reaction when CMP-[9-^3H]NeuAc was donor, compared to core-2 based donors and [4].
We tested the possibility that CMP-NeuAc formed above may be available for transfer to other acceptors using ST3Gal-II (scheme-II, FIG. 3). For this, three radiolabeled donors were prepared using methods described above: two were based on the mucin Core-2 structure ([[9-^3H] [1]] and [9-^3H]NeuAcα2,3Galβ1,3(6-O-SulfoGlcNAcβ1,6)GalNAcα-O—Al [[9-^3H] [4]]) while the third was based on the Globo glycolipid ([9-^3H] [3]). The transfer of [9-^3H]NeuAc from these sialylated donors to various T-hapten (Galβ1,3GalNAcα) and mucin core2-based glycoside acceptors in the presence of 5′-CMP and ST3Gal-II was assessed (Table III). All three […] of ST3Gal-II ([1], [3] and [4]) allowed formation of CMP-[9-^3H]NeuAc, and a diverse array of products.
The transfer of [9-^3H]NeuAc from [[9-^3H][1]] to D-Fucβ1,3GalNAcα-O-Bn in the presence of 5′-CMP and ST3Gal-II increased linearly in the first two hours and it reached saturation at 4 hours (FIG. 12), and thus the data in Table III (4 hours time point) represent equilibrium conditions. […] Further, diverse sialylated products can be formed using the same synthetic sialylated donor.
In order to compare the efficiency of individual reactions of scheme II, independent runs were performed where either 0.15 mM [9-^3H]CMP-NeuAc, 0.15 mM [9-^3H] [2] or 0.15 mM [9-^3H] [4] was the donor, and [5] was the acceptor (FIG. 3). 2 mM 5′-CMP was added in runs with core-2 donors and [4], and thus reverse sialylation of these molecules was feasible. Keq for transfer of sialic acid from CMP-NeuAc to [5] was 5.55 (FIG. 3a). […] (˜6 mM) or [9-^3H[4]] (˜6 mM). Thus, while the two-step mechanism results in lower conversion than CMP-NeuAc alone, the transfer of NeuAc still takes place at an appreciable rate.

Compound: CC(=O)N[C@H]1[C@H](OC[C@H]2O[C@H](OCc3ccccc3)[C@H](NC(C)=O)[C@@H](O[C@@H]3O[C@H](CO)[C@H](O)[C@H](O)[C@H]3O)[C@H]2O)O[C@H](CO)[C@@H](O[C@@H]2O[C@H](CO)[C@H](O)[C@H](OS(=O)(=O)O)[C@H]2O)[C@@H]1O [3-O-SulfoGalβ1,4GlcNAcβ1,6(Galβ1,3)GalNAcα-O-Bn]
Effect on reverse sialylation (CMP-NeuAc formation and product formation) (ST3Gal-II [1]): inhibits formation of the intermediate CMP-NeuAc

Compound: CC(=O)N[C@H]1[C@H](OC[C@H]2O[C@H](OCc3ccccc3)[C@H](NC(C)=O)[C@@H](O[C@@H]3O[C@H](CO)[C@H](O)[C@H](OS(=O)(=O)O)[C@H]3O)[C@H]2O)O[C@H](CO)[C@@H](O[C@@H]2O[C@H](CO)[C@H](O)[C@H](O)[C@H]2O)[C@@H]1O [Galβ1,4GlcNAcβ1,6(3-O-SulfoGalβ1,3)GalNAcα-O-Bn]
Effect on reverse sialylation (CMP-NeuAc formation and product formation) (ST3Gal-II [1]): permits both the formation of CMP-NeuAc from 5′-CMP

Keq measured with respect to the rate of mucin core-2 sialylation (ST3Gal-II [2]; [9-3H]CMP-NeuAc donor, mucin core-2 tetrasaccharide acceptor, calculated for previously published data): 5.55
Keq (dimensionless units), reverse sialylation equilibrium constant (ST3Gal-II [2]; translated from Keq 5.55 of mucin core-2 sialylation, previously published data): 0.18
Incorporation of [9-3H]NeuAc from donor [1], percent of the CPM incorporated into [5] (ST3Gal-II [3]; acceptor 2.5 mM, 150 μM donor [1], 1 mM 5′-CMP, 4 hours): 20.5%
Incorporation of [9-3H]NeuAc from donor [4], percent of the CPM incorporated into [5] (ST3Gal-II [3]; acceptor 2.5 mM, 150 μM donor [4], 1 mM 5′-CMP, 4 hours): 8.4%
Compound: CC(=O)N[C@H]1[C@H](OC[C@H]2O[C@H](OCc3ccccc3)[C@H](NC(C)=O)[C@@H](O[C@@H]3O[C@H](CO)[C@H](O)[C@H](O)[C@H]3O)[C@H]2O)O[C@H](CO)[C@@H](O[C@@H]2O[C@H](CO)[C@H](O)[C@H](O)[C@H]2O)[C@@H]1O [[10], Galβ1,4GlcNAcβ1,6(Galβ1,3)GalNAcα-O-Bn]

Compound: NeuAcα2,3Galβ1,4GlcNAcβ1,6(Galβ1,3)GalNAcα-O-Bn
Effect on reverse sialylation (CMP-NeuAc formation and product formation) (ST3Gal-II [1]): prevents product formation without inhibiting CMP-NeuAc formation

Keq (dimensionless units), reverse sialylation equilibrium constant (ST3Gal-II [2]; sialylated donor): 0.35
amount of acceptor [5] required for comparable transfer (ST3Gal-II [3]; 0.15 mM donor, 2 mM 5′-CMP with core-2 donors): ~6 mM
radioactivity transferred to CMP-NeuAc (ST3Gal-II [3]; control runs without acceptor [5], 2.0 mM 5′-CMP): 80-85%
Compound: [9-^3H]NeuAcα2,3Galβ1,3(4-FGlcNAcβ1,6)GalNAcα-O-Bn [[2]]
